Experiment [1] has as its system PBMCs. Briefly: Autofluorescence imaging FAD/NADH ratio of PBMCs after antigen stimulation (Example 2). In kind it is cell-based. The note with it: peptide solution 10 nM, PBMCs without preculturing. The protocol:
PBMCs having reactivity to a test substance that differs from the reactivity in Example 1 were used here. The PBMCs used here were manufactured by Cellular Technology Limited, and thawed by following a manual provided by the manufacturer. Unlike Example 1, preculturing was skipped and the PBMCs were immediately presented to a test for examining reactivity to a test substance.
The thawed PBMCs were suspended in the CTL-Test Medium at a cell concentration of 7.2×10^6 cells/mL, and 250 μL each was seeded in a 24-well plate. As the test substance, a peptide solution manufactured by Cellular Technology Limited, specifically, CMV pp65 (495-503) Peptide (having a peptide concentration of 10 nM) was used, and 250 μL of this peptide solution was added to each of the wells containing the cells.
As a control cell group to which no test substances were added, cells to which 250 μL each of CTL-Test Medium was added instead of a peptide solution were used. After antigen stimulation, the cells were left to stand for 1 hour to 24 hours in a 5% CO2 incubator. From each well, an entire amount of cell suspension solution was collected and subjected to 5 minutes of centrifugation at 300 G. After the centrifugation, a supernatant was removed and cell pellets were suspended in 1,000 μL of PBS. Further, the resultant cell suspension solution was diluted 5 times with the PBS. Then, 100 μL of the diluted cell suspension solution was seeded onto a cover glass part (having a diameter of 16 mm) of a 35-mm glass bottom dish, and was used for bright field observation and autofluorescence observation.
The subsequent bright-field image acquisition, autofluorescence image acquisition, extraction and analysis of the color information of the autofluorescence images were performed by the same methods as the methods in Example 1.

Experiment [2] concerns PBMCs. The note with it: PBMCs used in Example 1; confirmed in advance by the manufacturer; cited from earlier work.
Experiment [3] relates to PBMCs. The note with it: PBMCs used in Example 2; confirmed in advance by the manufacturer; cited from earlier work.

These results are taken from patent US20240310360A1, “METHOD OF […] RESPONSE OF CELL GROUP TO TEST SUBSTANCE” (CANON KABUSHIKI KAISHA, priority 2023, published 2024).

Where two headings read alike, the source gives them in different places.

On to “CMV pp65 (495-503) Peptide: peptide solution manufactured by Cellular Technology Limited; peptide that binds directly to an MHC (NLVPMVATV; UniProt P06725 495-503, looked up, fragment)”, for which the “drop in FAD/NADH ratio compared to PBMCs with no test substance added” value was “reproduced” in the experiment with PBMCs [1] (1 hour of stimulation), “hardly observed” with PBMCs [1] (4 hours after stimulation) and “substantially no drop” in the experiment on PBMCs [1] (period from 4 hours to 24 hours after stimulation). The figures for the “reactivity of the PBMCs to the peptide (ELISpot test)” value in the experiment with PBMCs [2] and with PBMCs [3] were “react weakly” and “react strongly”, respectively.
